Experiments:
[1] = test system: plasma insulin; experiment: Arginine-induced insulin release in intact rats; type: in vivo, rat (male Sprague-Dawley)
Protocol: (§1) After light deithyl ether anaesthetization, the animals were injected with a bolus of saline or alrestatin (sodium salt form in 0.3 ml saline/100 g of body weight) in the external jugular vein followed immediately with a bolus of arginine-HCl (British Drug House ) at a dose of 100 mg/100 g of body weight, cf. […] Vehicle control animals received a second injection of saline. Five minutes later trunk blood was collected by decapitation into chilled tubes containing sodium heparin (Upjohn) and aprotinin(Trasylol™, Boehringer-Ingelheim Dorval, Quebec, Canada) (20 U and 1000 KIU per ml whole blood, respectively). Plasma was collected after centrifugation, stored at -20° C. and assayed for immunoreactive glucagon and insulin levels within 2 weeks.
(§2) Rat insulin purchased from Novo A/S, Copenhagen, Denmark, was used as unlabelled standard. […] Glucagon antiserum (Antiserum 30K, purchased from Dr. R. H. Unger, Houston, Tex., U.S.A.) was employed in the assay. […] Metab. […] Metab. […] Antibody bound hormone was separated from free hormone by conventional charcoal-dextran methods.

[2] = test system: plasma glucagon; experiment: Arginine-induced glucagon release in intact rats; type: in vivo, rat (male Sprague-Dawley)
Protocol: as §1, §2

[3] = test system: plasma insulin; experiment: Intravenous glucose tolerance test in anaesthetized fasted non-diabetic male intact rats: plasma insulin; type: in vivo, rat (male Sprague Dawley); conditions: 0.75 mmol/kg i.v.
Protocol: (§3) A description of this experiment is as follows.
(§4) Male Sprague Dawley rats (200-250 g, Canadian Breeding Laboratories, St. Constant, Quebec, Canada) were used in the experiment. There were 11 animals in the group. The animals were kept in a room with constant light-dark cycle and temperature. They were allowed food (Purina Lab Chow™) and water ad libitum for at least three days before being utilized. The animals were then fasted for 24 hours and anaesthetized with nembutal (50 mg/kg, intraperitoneally; Abbott Laboratories, Montreal, Quebec, Canada.) The jugular veins were exposed and a fasting blood sample was drawn by the transmusculature puncture method, Y. Kato, J. Dupre and J. C. Beck, Endocrinology, 93, 135 (1973), employing a sodium heparin (The Upjohn Company, Don Mills, Ontario, Canada) washed syringe. Alrestatin sodium at a dose of 0.75 mmol/kg was administered as a bolus in the jugular vein followed immediately by a bolus of D-glucose (300 mg/kg; British Drug House, Montreal, Quebec, Canada). Control animals received an injection of sodium chloride (0.75 mmol/kg) instead of the alrestatin sodium. Blood samples were drawn at 5, 10 and 15 minutes after injection of the glucose. The wounds then were closed with autoclips (Clay Adams Co., Parsippany, N. J., U.S.A.) and the animals were allowed food and water for another three day period before the experiment was repeated, i.e., on day 4. […]
(§5) Plasma insulin was measured by radioimmunoassay using a charcoal separation method, V. Herbert et al, J. Clin. Endocrinol., 25, 1375 (1965). […] Plasma glucose was measured by a glucose oxidase method employing a Beckman Glucose Analyser, see Beckman Company Manual, Palo Alto, Calif., U.S.A.
(§6) The results, noted below, are expressed as mean± S.E.M. The statistical significance of changes in the concentration of plasma glucose (mg/100 ml) and insulin (μU/ml), in response to alrestatin or the vehicle, from basal fasting values was determined on the differences between group means by the Student's […]. […]

[4] = test system: plasma glucose; experiment: Intravenous glucose tolerance test in anaesthetized fasted non-diabetic male intact rats: plasma glucose; type: in vivo, rat (male Sprague Dawley); conditions: 0.75 mmol/kg i.v., mean±S.E.M.
Protocol: as §3, §4, §5, §6

[5] = test system: blood glucose; experiment: Clinical tests in diabetic patients: blood glucose levels; type: in vivo, human (diabetic patients)
Description: All patients were on a controlled diet. Patient A also was receiving the oral antidiabetic agent, glyburide (Daonil™) and patient C also was receiving the diuretic chlorthalidone (Hygroton™).

[6] = test system: plasma glucose; experiment: Acute administration without glucose bolus in fasted rats: plasma glucose; type: in vivo, rat (male Sprague Dawley); conditions: acute i.v. administration
Protocol: (§7) Male Sprague Dawley rats (200-250 g, Canadian Breeding Laboratories, St. Constant, Quebec, Canada) were used in the experiment. There were 11 animals in the group. The animals were kept in a room with constant light-dark cycle and temperature. They were allowed food (Purina Lab Chow™) and water ad libitum for at least three days before being utilized. The animals were then fasted for 24 hours and anaesthetized with nembutal (50 mg/kg, intraperitoneally; Abbott Laboratories, Montreal, Quebec, Canada.) The jugular veins were exposed and a fasting blood sample was drawn by the transmusculature puncture method, Y. Kato, J. Dupre and J. C. Beck, Endocrinology, 93, 135 (1973), employing a sodium heparin (The Upjohn Company, Don Mills, Ontario, Canada) washed syringe. […]
as §5, §6

[7] = LD50 in rats; conditions: rat, in vivo
Description: Therefore, a good therapeutic index of safety is present.

[8] = test system: plasma insulin; experiment: Acute administration without glucose bolus in fasted rats: plasma insulin; type: in vivo, rat (male Sprague Dawley); conditions: acute i.v. administration
Protocol: as §7, §5, §6

[9] = test system: aldose reductase; conditions: previously reported; cited from earlier work
[10] = 200 mg/kg i.v. immediately before arginine 100 mg/100 g
[11] = 35-200 mg/kg i.v. immediately before arginine 100 mg/100 g
[12] = arginine 100 mg/100 g i.v., 5 min

O=C(O)CN1C(=O)c2cccc3cccc(c23)C1=O [alrestatin sodium]
increase of arginine-induced insulin release [1, 10]: about 2.5 fold | effect on arginine-induced insulin release [1, 11]: increased the insulin release observed with arginine | effect on arginine-stimulated glucagon increase [2, 10]: completely prevented the increase caused by arginine | effect on arginine-stimulated glucagon concentrations [2, 11]: decreased the glucagon concentrations | mean incremental change of plasma insulin ([3]; 5 min after i.v. glucose (300 mg/kg), mean±S.E.M., vehicle 32.9±5.2, p<0.02): 76.9±16.7 μU/ml | plasma insulin levels vs vehicle ([3]; 10 min after i.v. glucose (300 mg/kg)): significantly greater | plasma insulin levels vs vehicle ([3]; 15 min after i.v. glucose (300 mg/kg)): greater at 15 minutes in the alrestatin treated group although the difference was not significant | mean incremental change of plasma glucose ([4]; 5 min after i.v. glucose (300 mg/kg), vehicle 96±4.7, NS): 83.3±5.4 mg % | mean incremental change of plasma glucose ([4]; 10 min after i.v. glucose (300 mg/kg), vehicle 82.8±7.5, p<0.05): 58.8±8.5 mg % | mean incremental change of plasma glucose ([4]; 15 min after i.v. glucose (300 mg/kg), vehicle 78.4±10.7, p<0.05): 45.4±9.6 mg % | lowering of blood sugar levels ([5]; 50 mg/kg/day i.v. for five days, diabetic patients): effective in lowering blood sugar levels | blood glucose, fasting ([5]; Patient A (also on glyburide), day 1, 50 mg/kg/day i.v., pretreatment 162): 132 mg % | blood glucose, 2hr postprandial ([5]; Patient A (also on glyburide), day 1, 50 mg/kg/day i.v., pretreatment 276): 185 mg % | blood glucose, fasting ([5]; Patient A (also on glyburide), day 2, 50 mg/kg/day i.v., pretreatment 162): 130 mg % | blood glucose, 2hr postprandial ([5]; Patient A (also on glyburide), day 2, 50 mg/kg/day i.v., pretreatment 276): 215 mg % | blood glucose, fasting ([5]; Patient A (also on glyburide), day 3, 50 mg/kg/day i.v., pretreatment 162): 97 mg % | blood glucose, 2hr postprandial ([5]; Patient A (also on glyburide), day 3, 50 mg/kg/day i.v., pretreatment 276): 155 mg % | blood glucose, fasting ([5]; Patient A (also on glyburide), day 4, 50 mg/kg/day i.v., pretreatment 162): 90 mg % | blood glucose, 2hr postprandial ([5]; Patient A (also on glyburide), day 4, 50 mg/kg/day i.v., pretreatment 276): 117 mg % | blood glucose, fasting ([5]; Patient A (also on glyburide), day 5, 50 mg/kg/day i.v., pretreatment 162): 132 mg % | blood glucose, 2hr postprandial ([5]; Patient A (also on glyburide), day 5, 50 mg/kg/day i.v., pretreatment 276): 230 mg % | blood glucose, fasting ([5]; Patient A (also on glyburide), follow-up after 5 days i.v. treatment, pretreatment 162): 111 mg % | blood glucose, 2hr postprandial ([5]; Patient A (also on glyburide), follow-up after 5 days i.v. treatment, pretreatment 276): 207 mg % | blood glucose, fasting ([5]; Patient B, day 1, 50 mg/kg/day i.v., pretreatment 90): 92 mg % | blood glucose, 2hr postprandial ([5]; Patient B, day 1, 50 mg/kg/day i.v., pretreatment 119): 72 mg % | blood glucose, fasting ([5]; Patient B, day 2, 50 mg/kg/day i.v., pretreatment 90): 89 mg % | blood glucose, 2hr postprandial ([5]; Patient B, day 2, 50 mg/kg/day i.v., pretreatment 119): 86 mg % | blood glucose, fasting ([5]; Patient B, day 3, 50 mg/kg/day i.v., pretreatment 90): 86 mg % | blood glucose, 2hr postprandial ([5]; Patient B, day 3, 50 mg/kg/day i.v., pretreatment 119): 94 mg % | blood glucose, fasting ([5]; Patient B, day 4, 50 mg/kg/day i.v., pretreatment 90): 50 mg % | blood glucose, 2hr postprandial ([5]; Patient B, day 4, 50 mg/kg/day i.v., pretreatment 119): 60 mg % | blood glucose, fasting ([5]; Patient B, day 5, 50 mg/kg/day i.v., pretreatment 90): 50 mg % | blood glucose, 2hr postprandial ([5]; Patient B, day 5, 50 mg/kg/day i.v., pretreatment 119): 43 mg % | blood glucose, fasting ([5]; Patient B, follow-up after 5 days i.v. treatment, pretreatment 90): 81 mg % | blood glucose, 2hr postprandial ([5]; Patient B, follow-up after 5 days i.v. treatment, pretreatment 119): 87 mg % | blood glucose, fasting ([5]; Patient C (also on chlorthalidone), day 1, 50 mg/kg/day i.v., pretreatment 95): 133 mg % | blood glucose, 2hr postprandial ([5]; Patient C (also on chlorthalidone), day 1, 50 mg/kg/day i.v., pretreatment 190): 128 mg % | blood glucose, fasting ([5]; Patient C (also on chlorthalidone), day 2, 50 mg/kg/day i.v., pretreatment 95): 111 mg % | blood glucose, 2hr postprandial ([5]; Patient C (also on chlorthalidone), day 2, 50 mg/kg/day i.v., pretreatment 190): 145 mg % | blood glucose, fasting ([5]; Patient C (also on chlorthalidone), day 3, 50 mg/kg/day i.v., pretreatment 95): 104 mg % | blood glucose, 2hr postprandial ([5]; Patient C (also on chlorthalidone), day 3, 50 mg/kg/day i.v., pretreatment 190): 141 mg % | blood glucose, fasting ([5]; Patient C (also on chlorthalidone), day 4, 50 mg/kg/day i.v., pretreatment 95): 50 mg % | blood glucose, 2hr postprandial ([5]; Patient C (also on chlorthalidone), day 4, 50 mg/kg/day i.v., pretreatment 190): 90 mg % | blood glucose, fasting ([5]; Patient C (also on chlorthalidone), day 5, 50 mg/kg/day i.v., pretreatment 95): 77 mg % | blood glucose, 2hr postprandial ([5]; Patient C (also on chlorthalidone), day 5, 50 mg/kg/day i.v., pretreatment 190): 106 mg % | blood glucose, fasting ([5]; Patient C (also on chlorthalidone), follow-up after 5 days i.v. treatment, pretreatment 95): 119 mg % | blood glucose, 2hr postprandial ([5]; Patient C (also on chlorthalidone), follow-up after 5 days i.v. treatment, pretreatment 190): 149 mg %

O=C(O)CN1C(=O)c2cccc3cccc(c23)C1=O [alrestatin, 1,3-dioxo-1H-benz[de]isoquinoline-2(3H)-acetic acid]
change in plasma glucose levels vs vehicle [6]: did not significantly alter | LD50 ([7]; iv, intravenously): 1220 ± 45 mg/kg | LD50 ([7]; po, perorally): > 2500 mg/kg | change in basal fasting plasma insulin levels vs vehicle [8]: did not significantly alter | inhibition of the enzyme aldose reductase [9]: inhibitor of the enzyme aldose reductase

N=C(N)NCCC[C@H](N)C(=O)O [arginine, reference compound]
increase of plasma insulin concentration [1, 12]: about 100 μU/ml | stimulated glucagon release, mean above plasma hormone concentration in vehicle treated animals [2, 12]: about 100 pg/ml | plasma glucagon concentration ([2]; arginine 100 mg/100 g i.v., 5 min, vehicles 180.6±5.8 pg/ml): 284.8 ± 13.7 pg/mL

From US4405625A, “Method of treating hyperglycemia with 1,3-dioxo-1H-benz[de]isoquinoline-2(3H)-acetic acid” (Ayerst, McKenna and Harrison Limited, priority 1979, dated 1983)
